Reference: ChEMBL document CHEMBL1177794, “Broad spectrum alkynyl inhibitors of T315I Bcr-Abl” (Bioorg Med Chem Lett, 2010)

Columns and labels:
[1] = target: Calcium/calmodulin-dependent protein kinase type 1D (Homo sapiens) (UniProt Q8IU85); assay: Inhibition of CAMK1D at 10 uM; conditions: values are per cent of control
[2] = test system: Phosphatidylinositol 4,5-bisphosphate 3-kinase catalytic subunit alpha isoform (Homo sapiens), P42336 [E545K]; assay: Inhibition of PIK3CA E545K mutant at 10 uM
[3] = target: Mitogen-activated protein kinase 6 (Homo sapiens) (UniProt Q16659); assay: Inhibition of ERK3 at 10 uM; conditions: values are per cent of control
[4] = target: Mitogen-activated protein kinase kinase kinase 9 (Homo sapiens) (UniProt P80192); assay: Inhibition of MLK1 at 10 uM
[5] = target: Mitogen-activated protein kinase kinase kinase 3 (Homo sapiens) (UniProt Q99759); assay: Inhibition of MAP3K3 at 10 uM; conditions: values are per cent of control
[6] = target: Tyrosine-protein kinase SYK (Homo sapiens) (UniProt P43405); assay: Inhibition of SYK at 10 uM
[7] = target: Serine/threonine-protein kinase SIK1 (Homo sapiens) (UniProt P57059); assay: Inhibition of SIK at 10 uM; values are per cent of control
[8] = target: Dual specificity mitogen-activated protein kinase kinase 3 (Homo sapiens) (UniProt P46734); assay: Inhibition of MEK3 at 10 uM; conditions: values are per cent of control
[9] = target: Serine/threonine-protein kinase Nek11 (Homo sapiens) (UniProt Q8NG66); assay: Inhibition of NEK11 at 10 uM
[10] = target: Leucine-rich repeat serine/threonine-protein kinase 2 (Homo sapiens) (UniProt Q5S007); assay: Inhibition of LRRK2 at 10 uM; conditions: values are per cent of control
[11] = target: Mitogen-activated protein kinase kinase kinase 19 (Homo sapiens) (UniProt Q56UN5); assay: Inhibition of YSK4 at 10 uM; conditions: values are per cent of control
[12] = target: LIM domain kinase 2 (Homo sapiens) (UniProt P53671); assay: Inhibition of LIMK2 at 10 uM; conditions: values are per cent of control
[13] = target: Epidermal growth factor receptor (Homo sapiens) (UniProt P04626+P00533+Q15303+P21860); assay: Inhibition of EGFR E746-A750del mutant at 10 uM; values are per cent of control
[14] = target: Dual serine/threonine and tyrosine protein kinase (Homo sapiens) (UniProt Q6XUX3); assay: Inhibition of RIPK5 at 10 uM
[15] = test system: Epidermal growth factor receptor (Homo sapiens), P00533 [G719S]; assay: Inhibition of EGFR G719S mutant at 10 uM; values are per cent of control
[16] = target: Mitogen-activated protein kinase 8 (Homo sapiens) (UniProt P45983); assay: Inhibition of JNK1 at 10 uM; values are per cent of control
[17] = target: Serine/threonine-protein kinase SBK1 (Homo sapiens) (UniProt Q52WX2); assay: Inhibition of SBK1 at 10 uM
[18] = target: Receptor tyrosine-protein kinase erbB-2 (Homo sapiens) (UniProt P04626); assay: Inhibition of ERBB2 at 10 uM; values are per cent of control
[19] = target: MAP kinase-interacting serine/threonine-protein kinase 1 (Homo sapiens) (UniProt Q9BUB5); assay: Inhibition of MKNK1 at 10 uM
[20] = test system: Leucine-rich repeat serine/threonine-protein kinase 2 (Homo sapiens), Q5S007 [G2019S]; assay: Inhibition of LRRK2 G2019S mutant at 10 uM; conditions: values are per cent of control
[21] = target: Ribosomal protein S6 kinase alpha-1 (Homo sapiens) (UniProt Q15418); assay: Inhibition of RSK1 C-terminal domain2 at 10 uM
[22] = target: Serine/threonine-protein kinase TAO1 (Homo sapiens) (UniProt Q7L7X3); assay: Inhibition of TAOK1 at 10 uM
[23] = target: Hormonally up-regulated neu tumor-associated kinase (Homo sapiens) (UniProt P57058); assay: Inhibition of HUNK at 10 uM; conditions: values are per cent of control
[24] = target: Serine/threonine-protein kinase Nek9 (Homo sapiens) (UniProt Q8TD19); assay: Inhibition of NEK9 at 10 uM
[25] = target: Homeodomain-interacting protein kinase 4 (Homo sapiens) (UniProt Q8NE63); assay: Inhibition of HIPK4 at 10 uM; conditions: values are per cent of control
[26] = target: Serine/threonine-protein kinase SIK3 (Homo sapiens) (UniProt Q9Y2K2); assay: Inhibition of QSK at 10 uM
[27] = target: Tyrosine-protein kinase CSK (Homo sapiens) (UniProt P41240); assay: Inhibition of CSK at 10 uM; values are per cent of control
[28] = test system: Receptor-type tyrosine-protein kinase FLT3 (Homo sapiens), P36888 [R834Q]; assay: Inhibition of FLT3 R834Q mutant at 10 uM; conditions: values are per cent of control
[29] = test system: Tyrosine-protein kinase ABL1 (Homo sapiens), P00519 [Y253F]; assay: Inhibition of phosphorylated ABL1 Y253F mutant at 10 uM; conditions: values are per cent of control
[30] = target: Wee1-like protein kinase 2 (Homo sapiens) (UniProt P0C1S8); assay: Inhibition of WEE2 at 10 uM; conditions: values are per cent of control
[31] = test system: Hepatocyte growth factor receptor (Homo sapiens), P08581 [M1250T]; assay: Inhibition of MET M1250T mutant at 10 uM
[32] = target: Serine/threonine-protein kinase PAK 2 (Homo sapiens) (UniProt Q13177); assay: Inhibition of PAK2 at 10 uM
[33] = target: Casein kinase I isoform gamma-3 (Homo sapiens) (UniProt Q9Y6M4); assay: Inhibition of CSNK1G3 at 10 uM; values are per cent of control
[34] = target: Mitogen-activated protein kinase 13 (Homo sapiens) (UniProt O15264); assay: Inhibition of p38delta at 10 uM; values are per cent of control
[35] = target: Mitogen-activated protein kinase kinase kinase 11 (Homo sapiens) (UniProt Q16584); assay: Inhibition of MLK3 at 10 uM
[36] = test system: Tyrosine-protein kinase ABL1 (Homo sapiens), P00519 [T315I]; assay: Inhibition of non phosphorylated ABL1 T315I mutant at 10 uM; conditions: values are per cent of control
[37] = target: Serine/threonine-protein kinase Chk1 (Homo sapiens) (UniProt O14757); assay: Inhibition of CHEK1 at 10 uM; values are per cent of control
[38] = target: Cyclin-dependent kinase 11A (Homo sapiens) (UniProt Q9UQ88); assay: Inhibition of CDC2L2 at 10 uM; conditions: values are per cent of control
[39] = target: Death-associated protein kinase 3 (Homo sapiens) (UniProt O43293); assay: Inhibition of DAPK3 at 10 uM; conditions: values are per cent of control
[40] = target: Leukocyte tyrosine kinase receptor (Homo sapiens) (UniProt P29376); assay: Inhibition of LTK at 10 uM; conditions: values are per cent of control
[41] = target: Tyrosine-protein kinase Fyn (Homo sapiens) (UniProt P06241); assay: Inhibition of FYN at 10 uM; values are per cent of control

Phosphatidylinositol 4,5-bisphosphate 3-kinase catalytic subunit alpha isoform (Homo sapiens), P42336 [E545K], sequence (P42336 whole entry E545K, canonical isoform): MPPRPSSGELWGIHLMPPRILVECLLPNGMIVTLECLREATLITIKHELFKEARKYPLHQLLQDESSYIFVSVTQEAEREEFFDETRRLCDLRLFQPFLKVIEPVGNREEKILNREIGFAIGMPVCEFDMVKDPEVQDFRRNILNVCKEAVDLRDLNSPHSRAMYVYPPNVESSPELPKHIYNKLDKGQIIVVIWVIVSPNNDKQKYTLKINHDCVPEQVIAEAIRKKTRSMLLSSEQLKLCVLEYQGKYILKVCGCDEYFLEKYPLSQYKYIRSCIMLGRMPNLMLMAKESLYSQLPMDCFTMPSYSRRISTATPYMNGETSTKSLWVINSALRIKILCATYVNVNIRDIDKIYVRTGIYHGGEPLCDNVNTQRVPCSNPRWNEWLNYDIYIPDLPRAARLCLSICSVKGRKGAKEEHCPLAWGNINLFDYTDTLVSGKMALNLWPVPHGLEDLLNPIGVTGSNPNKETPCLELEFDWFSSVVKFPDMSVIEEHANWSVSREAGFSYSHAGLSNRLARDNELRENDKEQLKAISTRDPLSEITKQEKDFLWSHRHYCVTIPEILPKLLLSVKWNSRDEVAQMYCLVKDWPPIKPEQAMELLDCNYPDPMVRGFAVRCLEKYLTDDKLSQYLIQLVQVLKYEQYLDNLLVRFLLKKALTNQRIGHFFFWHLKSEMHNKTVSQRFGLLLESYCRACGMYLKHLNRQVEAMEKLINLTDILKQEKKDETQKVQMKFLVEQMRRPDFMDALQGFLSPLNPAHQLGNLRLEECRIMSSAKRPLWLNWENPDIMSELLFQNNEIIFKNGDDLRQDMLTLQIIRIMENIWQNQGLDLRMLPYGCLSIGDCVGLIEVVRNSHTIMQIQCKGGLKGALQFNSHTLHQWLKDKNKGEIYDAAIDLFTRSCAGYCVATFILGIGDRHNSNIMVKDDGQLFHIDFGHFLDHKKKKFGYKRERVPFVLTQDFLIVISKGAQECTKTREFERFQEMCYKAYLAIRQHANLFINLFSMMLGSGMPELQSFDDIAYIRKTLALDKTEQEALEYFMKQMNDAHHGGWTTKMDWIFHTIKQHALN
Serine/threonine-protein kinase SBK1 (Homo sapiens), sequence (Q52WX2 whole entry): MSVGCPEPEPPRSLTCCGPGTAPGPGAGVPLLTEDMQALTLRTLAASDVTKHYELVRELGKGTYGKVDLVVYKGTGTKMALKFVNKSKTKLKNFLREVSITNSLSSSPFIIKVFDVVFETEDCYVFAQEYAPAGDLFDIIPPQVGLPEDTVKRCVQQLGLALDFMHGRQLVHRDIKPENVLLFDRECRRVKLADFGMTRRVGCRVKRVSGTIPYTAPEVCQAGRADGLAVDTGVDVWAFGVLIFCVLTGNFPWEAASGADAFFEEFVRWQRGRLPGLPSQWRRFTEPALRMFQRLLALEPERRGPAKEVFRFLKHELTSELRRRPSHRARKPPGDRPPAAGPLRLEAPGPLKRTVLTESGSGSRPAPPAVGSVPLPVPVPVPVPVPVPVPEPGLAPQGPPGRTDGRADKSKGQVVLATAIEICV
Serine/threonine-protein kinase Nek11 (Homo sapiens), sequence (Q8NG66 whole entry): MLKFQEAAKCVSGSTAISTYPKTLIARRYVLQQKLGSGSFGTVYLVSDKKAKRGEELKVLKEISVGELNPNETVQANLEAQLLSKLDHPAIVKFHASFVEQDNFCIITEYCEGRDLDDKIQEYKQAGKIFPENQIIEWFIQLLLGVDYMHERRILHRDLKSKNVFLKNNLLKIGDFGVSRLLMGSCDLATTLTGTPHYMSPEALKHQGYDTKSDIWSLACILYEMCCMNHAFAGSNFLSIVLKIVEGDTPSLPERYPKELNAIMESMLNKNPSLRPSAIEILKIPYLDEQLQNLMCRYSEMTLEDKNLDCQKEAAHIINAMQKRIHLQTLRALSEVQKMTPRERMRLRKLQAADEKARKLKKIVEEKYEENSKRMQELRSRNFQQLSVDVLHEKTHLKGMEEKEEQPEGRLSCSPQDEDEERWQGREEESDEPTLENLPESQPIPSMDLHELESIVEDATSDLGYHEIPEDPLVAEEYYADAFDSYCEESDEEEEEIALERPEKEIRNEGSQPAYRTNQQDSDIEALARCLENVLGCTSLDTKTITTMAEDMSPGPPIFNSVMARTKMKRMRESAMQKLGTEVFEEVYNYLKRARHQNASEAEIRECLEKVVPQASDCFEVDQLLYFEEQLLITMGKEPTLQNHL
Ribosomal protein S6 kinase alpha-1 (Homo sapiens), sequence (Q15418 whole entry, the tested form may be a part): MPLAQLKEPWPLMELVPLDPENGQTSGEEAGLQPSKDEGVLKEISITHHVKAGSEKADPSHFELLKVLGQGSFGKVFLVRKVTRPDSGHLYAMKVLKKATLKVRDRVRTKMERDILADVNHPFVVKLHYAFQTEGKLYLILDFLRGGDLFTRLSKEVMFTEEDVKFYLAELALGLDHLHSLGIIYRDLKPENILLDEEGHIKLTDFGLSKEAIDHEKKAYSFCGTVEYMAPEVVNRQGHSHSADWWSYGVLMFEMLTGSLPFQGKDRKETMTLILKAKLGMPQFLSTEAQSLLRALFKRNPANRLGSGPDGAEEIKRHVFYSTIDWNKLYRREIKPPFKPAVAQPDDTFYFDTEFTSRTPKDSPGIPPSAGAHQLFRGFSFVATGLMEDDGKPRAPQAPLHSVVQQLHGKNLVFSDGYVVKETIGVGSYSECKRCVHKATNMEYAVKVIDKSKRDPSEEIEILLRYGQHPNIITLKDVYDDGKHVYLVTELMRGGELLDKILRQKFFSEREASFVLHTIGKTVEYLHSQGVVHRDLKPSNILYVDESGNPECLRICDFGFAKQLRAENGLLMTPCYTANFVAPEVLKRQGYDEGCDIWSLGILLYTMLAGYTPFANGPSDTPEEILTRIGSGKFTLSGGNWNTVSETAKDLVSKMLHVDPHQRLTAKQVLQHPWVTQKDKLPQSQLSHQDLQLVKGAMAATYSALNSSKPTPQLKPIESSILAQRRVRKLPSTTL
Serine/threonine-protein kinase Chk1 (Homo sapiens), sequence (O14757 whole entry): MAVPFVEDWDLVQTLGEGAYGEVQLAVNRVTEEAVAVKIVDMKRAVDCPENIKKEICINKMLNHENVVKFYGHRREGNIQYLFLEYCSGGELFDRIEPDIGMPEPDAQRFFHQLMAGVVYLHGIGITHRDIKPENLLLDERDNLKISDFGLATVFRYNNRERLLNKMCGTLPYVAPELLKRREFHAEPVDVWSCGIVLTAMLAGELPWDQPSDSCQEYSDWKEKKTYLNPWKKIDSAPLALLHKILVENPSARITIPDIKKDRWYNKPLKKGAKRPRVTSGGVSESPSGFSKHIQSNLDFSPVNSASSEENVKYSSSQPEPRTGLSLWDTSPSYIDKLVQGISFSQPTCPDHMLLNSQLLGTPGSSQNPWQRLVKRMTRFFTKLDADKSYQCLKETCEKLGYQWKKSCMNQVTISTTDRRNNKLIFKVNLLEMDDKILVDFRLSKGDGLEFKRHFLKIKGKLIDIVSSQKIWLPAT
Mitogen-activated protein kinase kinase kinase 19 (Homo sapiens), sequence (Q56UN5 whole entry, the tested form may be a part): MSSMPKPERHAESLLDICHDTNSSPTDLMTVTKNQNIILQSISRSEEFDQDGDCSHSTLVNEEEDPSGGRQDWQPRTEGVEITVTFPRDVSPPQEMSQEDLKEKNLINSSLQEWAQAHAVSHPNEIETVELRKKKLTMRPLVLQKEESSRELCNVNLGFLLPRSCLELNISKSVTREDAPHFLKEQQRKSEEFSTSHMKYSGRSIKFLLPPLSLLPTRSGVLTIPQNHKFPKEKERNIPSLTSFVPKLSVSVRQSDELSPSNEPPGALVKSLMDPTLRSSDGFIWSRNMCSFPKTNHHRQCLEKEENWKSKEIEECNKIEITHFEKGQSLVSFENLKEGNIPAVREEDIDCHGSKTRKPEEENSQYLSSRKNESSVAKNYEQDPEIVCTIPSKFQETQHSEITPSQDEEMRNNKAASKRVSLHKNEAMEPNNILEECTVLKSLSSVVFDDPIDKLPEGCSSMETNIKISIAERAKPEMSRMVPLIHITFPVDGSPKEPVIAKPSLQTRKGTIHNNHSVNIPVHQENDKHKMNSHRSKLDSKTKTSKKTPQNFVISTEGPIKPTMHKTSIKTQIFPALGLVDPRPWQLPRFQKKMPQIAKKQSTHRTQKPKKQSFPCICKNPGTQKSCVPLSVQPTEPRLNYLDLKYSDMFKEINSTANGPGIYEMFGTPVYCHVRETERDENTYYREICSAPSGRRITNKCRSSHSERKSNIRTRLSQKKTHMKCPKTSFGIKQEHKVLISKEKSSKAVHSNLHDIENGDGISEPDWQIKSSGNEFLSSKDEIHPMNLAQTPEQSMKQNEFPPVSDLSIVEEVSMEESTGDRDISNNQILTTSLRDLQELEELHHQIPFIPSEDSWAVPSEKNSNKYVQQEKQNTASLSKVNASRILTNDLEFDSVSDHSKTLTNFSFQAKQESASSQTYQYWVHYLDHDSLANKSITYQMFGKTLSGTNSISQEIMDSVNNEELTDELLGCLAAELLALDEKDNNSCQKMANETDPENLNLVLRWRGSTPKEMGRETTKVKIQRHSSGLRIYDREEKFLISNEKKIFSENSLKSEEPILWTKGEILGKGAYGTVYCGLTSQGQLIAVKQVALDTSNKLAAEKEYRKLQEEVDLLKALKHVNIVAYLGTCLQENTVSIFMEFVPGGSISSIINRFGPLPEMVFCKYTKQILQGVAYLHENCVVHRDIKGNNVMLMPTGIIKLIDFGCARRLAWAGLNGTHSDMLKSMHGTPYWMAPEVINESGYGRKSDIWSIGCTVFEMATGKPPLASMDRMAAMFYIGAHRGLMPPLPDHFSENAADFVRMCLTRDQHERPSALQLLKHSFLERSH
Mitogen-activated protein kinase 13 (Homo sapiens), sequence (O15264 whole entry): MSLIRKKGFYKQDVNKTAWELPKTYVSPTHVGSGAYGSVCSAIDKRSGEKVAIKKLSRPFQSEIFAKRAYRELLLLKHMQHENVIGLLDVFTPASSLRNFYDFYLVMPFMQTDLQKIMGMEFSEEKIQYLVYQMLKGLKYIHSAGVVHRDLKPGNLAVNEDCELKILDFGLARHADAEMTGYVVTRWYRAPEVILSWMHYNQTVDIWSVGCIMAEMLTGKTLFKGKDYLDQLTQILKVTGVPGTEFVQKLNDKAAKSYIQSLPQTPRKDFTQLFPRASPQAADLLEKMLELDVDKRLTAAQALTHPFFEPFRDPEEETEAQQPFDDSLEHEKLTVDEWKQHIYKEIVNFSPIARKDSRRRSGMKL

`CCN1CCN(Cc2ccc(NC(=O)c3ccc(C)c(C#Cc4cccnc4)c3)cc2C(F)(F)F)CC1` gave a residual binding, % of control [1] of 72%, an inhibition [2] of 85% and a residual binding, % of control [3] of 100%. It also gave an inhibition [4] of 43%, a residual binding, % of control [5] of 1.4% and an inhibition [6] of 13%. For the same molecule, the % of control [7] was 0.45%, the residual binding, % of control [8] was 86% and the inhibition [9] was 9.1%. For the same molecule, the residual binding, % of control [10] was 3.4%, the residual binding, % of control [11] was 0.1% and the residual binding, % of control [12] was 11%. It also gave a level, % of control [13] of 1.8%, an inhibition [14] of 27% and a level, % of control [15] of 2.4%. For the same molecule, the level, % of control [16] was 0.55%, the inhibition [17] was 88% and the level, % of control [18] was 0.5%. The inhibition [19] was 0.25%, the residual binding, % of control [20] was 7.5% and the inhibition [21] was 7.2%. For the same molecule, the inhibition [22] was 0.25%, the residual binding, % of control [23] was 54% and the inhibition [24] was 41%. For the same molecule, the residual binding, % of control [25] was 2.2%, the inhibition [26] was 70% and the level, % of control [27] was 0.15%. It also gave a residual binding, % of control [28] of 4.2%, a residual binding, % of control [29] of 0.15% and a residual binding, % of control [30] of 100%. For the same molecule, the inhibition [31] was 73%, the inhibition [32] was 84% and the level, % of control [33] was 85%. It also gave a % of control [34] of 2.5%, an inhibition [35] of 17% and a residual binding, % of control [36] of 2.8%. For the same molecule, the level, % of control [37] was 80%, the residual binding, % of control [38] was 1.6% and the residual binding, % of control [39] was 100%. For the same molecule, the residual binding, % of control [40] was 4.5% and the level, % of control [41] was 0.35%.
`CCN1CCN(Cc2ccc(NC(=O)c3ccc(C)c(C#Cc4cnc5[nH]ccc5c4)c3)cc2C(F)(F)F)CC1` showed a residual binding, % of control [1] of 68%, an inhibition [2] of 98% and a residual binding, % of control [3] of 100%. The inhibition [4] was 1.7%, the residual binding, % of control [5] was 1.4% and the inhibition [6] was 1%. The % of control [7] was 0.25%, the residual binding, % of control [8] was 67% and the inhibition [9] was 18%. The residual binding, % of control [10] was 6.2%, the residual binding, % of control [11] was 0.1% and the residual binding, % of control [12] was 0.35%. It also gave a level, % of control [13] of 0.75%, an inhibition [14] of 8.2% and a level, % of control [15] of 0.15%. For the same molecule, the level, % of control [16] was 0.45%, the inhibition [17] was 87% and the level, % of control [18] was 0.3%. It also gave an inhibition [19] of 1.2%, a residual binding, % of control [20] of 8.8% and an inhibition [21] of 17%. It also gave an inhibition [22] of 0%, a residual binding, % of control [23] of 21% and an inhibition [24] of 12%. For the same molecule, the residual binding, % of control [25] was 1.9%, the inhibition [26] was 77% and the level, % of control [27] was 0.1%. It also gave a residual binding, % of control [28] of 7.2%, a residual binding, % of control [29] of 0.2% and a residual binding, % of control [30] of 20%. It also gave an inhibition [31] of 59%, an inhibition [32] of 76% and a level, % of control [33] of 22%. It also gave a % of control [34] of 2.6%, an inhibition [35] of 3% and a residual binding, % of control [36] of 2.4%. For the same molecule, the level, % of control [37] was 88%, the residual binding, % of control [38] was 0% and the residual binding, % of control [39] was 96%. It also gave a residual binding, % of control [40] of 2.5% and a level, % of control [41] of 0.25%.
